From US20240156971A1, “METHODS AND SORTILIN BINDING CONJUGATE COMPOUNDS FOR TARGETING CANCER STEM CELLS” (TRANSFERT PLUS, SOCIÉTÉ EN COMMANDITE, priority 2021, published 2024)
Square brackets hold non-standard residues; d marks the D form. Ends that are not written are not given here. Nle = CCCC[C@H](N)C(=O)O

What was measured:
[1] = tested on: hBCSCs; assay: Confocal microscopy of hBCSCs (DAPI, anti-α-tubulin); format: cell-based, human; conditions: 4 μM docetaxel or 2 μM TH1902, 48 hours post-treatment; for appearance of fragmented nuclei: DAPI
Method: Effects of Docetaxel and TH1902 on Tubulin Polymerization. hBCSCs were grown to 80% confluence on pre-coated 18 mm microscope cover slips (Celprogen, #E36102-29-CS18), rinsed with PBS and exposed to serum-free culture medium containing vehicle (DMSO), 4 μM docetaxel or 2 μM TH1902 at 37° C. Following incubation for 2 hours the cells were rinsed with complete culture medium and incubated in fresh complete medium for 48 hours. Cells were then washed with PHEM buffer (60 mM Pipes, 25 mM HEPES, 10 mM EGTA and 2 mM MgCl2, pH 6.9) and fixed for 15 minutes with 4% paraformaldehyde, then permeabilized with 1% Triton™ X-100 in PHEM buffer for 5 minutes and washed again with PHEM buffer. The cells were blocked in PBS (2.6 mM KCl, 1.4 mM KH2PO4, 136.9 mM NaCl and 6.5 mM Na2HPO4·7H2O; pH 7.2) containing 10% normal goat serum and 0.05% Triton™ and then incubated for 1 hour with 1:2000 anti-α-Tubulin primary monoclonal antibody (clone B-5-1-2, Sigma-Aldrich; #T5168) diluted in washing buffer (PBS containing 5% normal goat serum and 0.025% Triton). Cells were washed with washing buffer and incubated for 1 hour with Alexa Fluor™ 488-conjugated goat anti-mouse secondary antibody (1:1000; Invitrogen; #A-11001), washed with diluted blocking buffer, stained with DAPI ([…] in PBS, Invitrogen; #D1306) for 3 minutes, washed again in washing blocking buffer and mounted onto slides using Prolong™ Gold antifade reagent (Invitrogen, P36934). Cell images were finally digitalized by confocal microscopy (Nikon A1) and analyzed using NIH ImageJ™ Version 1.4.21 software. The excitation and emission wavelengths used for Alexa Fluor™ 488 were 488 nm and 525 nm, respectively; the excitation and emission wavelengths used for DAPI were 404 nm and 450 nm, respectively.

[2] = tested on: MDA-MB-231/luc cells; assay: Cell cycle analysis (G2/M) of MDA-MB-231/luc cells; format: cell-based, human; conditions: MDA-MB-231 cells
Method: Cell Cycle Analysis Following Treatment of hBCSC by Test Articles. hBCSCs (2.8×10^5 cells/well) and MDA-MB-231/luc cells (2.3×10^5 cells/well) were seeded in 6-well plates one day prior to treatment. To test the effects of Docetaxel and TH1902 on cell cycle phases, hBCSCs and MDA-MB-231/luc cells were treated for 2 hours in serum-free media with vehicle (DMSO), 4 μM docetaxel or 2 μM TH1902 (equimolar of docetaxel), rinsed with complete media and incubated in fresh complete media for 22 and 48 hours. For the experiments with the P-gp inhibitors, hBCSCs were first pre-treated for 30 minutes in serum-free media with vehicle (DMSO), or 10 μM cyclosporine A or PSC-833 (P-gp inhibitors). Next, cells were treated for 2 hours with 4 μM docetaxel or 2 μM TH1902 in the continued presence or absence of the P-gp inhibitors before being rinsed and incubated in fresh complete media in the continued presence or absence of the P-gp inhibitors. Cells were then incubated for 22 and 48 hours. In both assays, following the incubation, cells were detached with trypsin, fixed with ice-cold 70% EtOH and kept overnight at 4° C. Cells were washed once with PBS, after which they were stained for 30 minutes at room temperature with FxCycle™ PI/RNase Staining Solution (Thermo Scientific, Waltham, MA; #F10797). Cells were finally subjected to cell cycle analysis using a BD Accuri™ C6 flow cytometer.

[3] = tested on: hBCSC xenografts; assay: Growth of hBCSC xenografts in mice; format: in vivo; conditions: for growth of tumors originating from breast CSCs: weekly i.v., TH1902 at doses equivalent to 1, 1.25 or 1.5 the MTD of docetaxel, docetaxel 15 mg/kg (MTD)
From the text: (§1) In vivo Assessment of Docetaxel and TH1902 Anti-Tumor Efficacy. Tumor xenografts were established by subcutaneous inoculation of 10^3 hBCSC cells, hOvCSC and hPCSC resuspended in […] of HBSS containing 50% Matrigel™, into the right flank of NCG triple immunodeficient female mice (Charles River, Saint-Constant QC) under light isoflurane anesthesia. Three days following implantation of either hBCSC or hOvCSCS, mice commenced receiving weekly treatment by intravenous bolus injections of vehicle (10% polysorbate-80, 5% dextrose, 0.04% formic acid pH 4.3), docetaxel (15 mg/kg (the MTD for this agent) or 3.75 mg/kg (¼ MTD for this agent), dissolved in 5% dextrose, 3.3% ethanol, 1.7% Tween™-80) or TH1902 (35 mg/kg or 8.75 mg/kg) dissolved in vehicle. Note that the two TH1902 and docetaxel concentrations contain equimolar amounts of docetaxel due to the two docetaxel moieties per TH1902 molecule. Tumor growth was measured using two-dimensional measurements taken with an electronic caliper, and tumor volume was calculated according to the following formula: tumor volume (mm^3)=π/6×length×width^2. Animal weights were measured three times per week with a precision of 10 mg.

[4] = tested on: hOvCSC xenografts; assay: Growth of hOvCSC xenografts in mice; format: in vivo; conditions: weekly i.v.; TH1902 at doses equivalent to 1, 1.25 or 1.5 the MTD of docetaxel; docetaxel 15 mg/kg (MTD)
From the text: as §1, with “[…])” for “1.7% Tween™-80) or TH1902 (35 mg/kg or 8.75 mg/kg)”, “Note that the two TH1902 and docetaxel concentrations contain equimolar amounts of docetaxel due to the two docetaxel moieties per TH1902 molecule.” left out

[5] = format: in vivo, mice
From the text: as §1

[6] = tested on: ovarian hOCSC xenografts; assay: hOCSC xenografts treated with single agents or combined with carboplatin; format: in vivo, mice; conditions: for inhibition of tumor growth, single agent: docetaxel 10 mg/kg, TH1902 23 mg/kg, paclitaxel 10 mg/kg, carboplatin 40 mg/kg, day 18
Method: Mice bearing ovarian hOCSC xenografts were treated with vehicle, docetaxel, paclitaxel, TH1902 or carboplatin, and other groups of mice were administered carboplatin in combination with either docetaxel, paclitaxel or TH1902. To minimize the risk of side effects resulting from combining treatments, the dosages used for each drug were reduced to the following: docetaxel 10 mg/kg; TH1902 23 mg/kg (equivalent to the docetaxel dosage); paclitaxel 10 mg/kg; carboplatin 40 mg/kg (unchanged).

With “Acetyl-GVRAK(docetaxel)AGVRN(Nle)FK(docetaxel)SESY (Ac-GVRAK(docetaxel)AGVRN[Nle]FK(docetaxel)SESY) [TH1902]” the “cell morphology change versus vehicle-treated cells” value [1] was “visible morphology change”, the “enlargement of cells and re-organization of the microtubules (tubulin labelling)” value [1] was “more evident” and the “appearance of fragmented nuclei” value [1] was “fragmented nuclei in many of the cells”. For the same compound, the “G2/M cell cycle arrest at 22 h” value [2] was “some G2/M cell cycle arrest being detected at 22 h”, the “tumor growth curve at 8.75 mg/kg TH1902 (eq. to 1/4 of docetaxel MTD)” value ([3]; hBCSC xenografts, weekly, FIG. 8A) was “virtual overlap between the 15 mg/kg docetaxel curve and the 8.75 mg/kg TH1902 curve” and the “growth of tumors originating from breast CSCs” value [3] was “significant inhibition of the growth of tumors”. The “growth of tumors originating from ovarian CSCs” value [4] was “significant inhibition of the growth of tumors”, the “effect on animals' weight” value ([5]; FIGS. 8C, 9C and 10C) was “no or minimal effect” and the “inhibition of tumor growth, single agent” value [6] was “much greater than that of either taxanes”. The “inhibition of tumor growth, combined with carboplatin” value ([6]; plus carboplatin 40 mg/kg intraperitoneal, vs the agent alone) was “slightly increased”.
For `CC(=O)O[C@@]12CO[C@@H]1C[C@H](O)[C@@]1(C)C(=O)[C@H](O)C3=C(C)[C@@H](OC(=O)[C@H](O)[C@@H](NC(=O)OC(C)(C)C)c4ccccc4)C[C@@](O)([C@@H](OC(=O)c4ccccc4)[C@H]21)C3(C)C` [docetaxel, reference compound], the “cell morphology change versus vehicle-treated cells” value [1] was “visible morphology change”, the “enlargement of cells and re-organization of the microtubules (tubulin labelling)” value [1] was “present in some” and the “appearance of fragmented nuclei” value [1] was “not seen”. For the same compound, the “G2/M cell cycle arrest at 22 h” value [2] was “not”, the “growth of tumors originating from breast CSCs” value [3] was “no significant reduction of tumor growth” and the “growth of tumors originating from ovarian CSCs” value [4] was “no significant reduction of tumor growth”. For the same compound, the weight loss ([5]; mouse, in vivo) was 5-10% and the “inhibition of tumor growth, single agent” value [6] was “clearly inferior to that of TH1902”.
